Data published in patent US20100240768A1, “NOVEL NUTRACEUTICALCOMPOSITIONS CONTAINING THYMOL AND/OR P-CYMENE OR PLANT EXTRACTS FOR COGNITION” (priority 2007, published 2010).
Where two headings read alike, the source gives them in different places.

What was measured:
[1] = target: T1, human glycine transporter 1b (GlyT1) (Homo sapiens, UniProt P48067); experiment: Inhibition of glycine transporter 1 in a cellular assay ([3H]glycine uptake into CHO cells); assay type: cell-based; details: for IC50: dose-response curve, internalization of radioactive glycine into the cells, read-out: IC50 (FIG. 1, GlyT1 inhibition assay); for IC50 for tritiated glycine uptake: CHO cells expressing human GlyT1b, pure compounds, mean±s.e.m.
T1 construct: expressed in transfected cells
T1 sequence (P48067 1-652 isoform P48067-3): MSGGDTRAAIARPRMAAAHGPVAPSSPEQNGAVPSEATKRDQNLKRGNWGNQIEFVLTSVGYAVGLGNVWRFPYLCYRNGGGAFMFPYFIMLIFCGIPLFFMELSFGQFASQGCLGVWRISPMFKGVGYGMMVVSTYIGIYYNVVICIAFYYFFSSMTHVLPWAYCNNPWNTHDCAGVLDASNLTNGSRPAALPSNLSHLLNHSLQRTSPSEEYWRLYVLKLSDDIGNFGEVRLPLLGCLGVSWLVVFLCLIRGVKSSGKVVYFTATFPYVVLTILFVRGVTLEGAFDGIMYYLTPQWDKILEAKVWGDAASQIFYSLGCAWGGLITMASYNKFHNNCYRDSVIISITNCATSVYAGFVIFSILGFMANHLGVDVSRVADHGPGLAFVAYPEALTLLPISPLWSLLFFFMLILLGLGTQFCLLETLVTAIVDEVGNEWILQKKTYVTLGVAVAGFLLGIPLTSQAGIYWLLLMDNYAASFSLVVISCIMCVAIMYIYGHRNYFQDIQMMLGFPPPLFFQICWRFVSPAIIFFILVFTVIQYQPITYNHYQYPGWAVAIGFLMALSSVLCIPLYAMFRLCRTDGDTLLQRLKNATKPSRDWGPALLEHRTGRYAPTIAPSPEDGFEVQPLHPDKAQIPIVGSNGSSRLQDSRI
Protocol: Cells were harvested by trypsinisation one day prior to the assay and were seeded in the above mentioned medium. […] Glycine uptake into the cells was determined by addition of 60 nM radio-labelled [^3H] glycine (Amersham Biosciences GE Healthcare, Slough, UK) and incubation for 30 minutes at room temperature. Following removal of unincorporated label by gentle washing three times with the above buffer, incorporated glycine was quantified by liquid scintillation counting. […] Louis, USA) were used as known inhibitors of GlyT1.

pCREB = experiment: Hippocampal slice cultures, synaptic marker pCREB (immunohistochemistry); assay type: cell-based, Wistar rats; details: 15 min treatment of slices after 48 h culture; compared to sister cultures treated with buffer
Protocol: (§1) Seven-day-old Wistar rats were decapitated using a guillotine. In less than 1 minute the skull was opened, the cerebral hemispheres were separated and transferred and both hippocampi were dissected and transferred into ice cold buffer containing 137 mM NaCl, 5 mM KCl, 0.85 mM Na2HPO4, 1.5 mM CaCl2, 0.66 mM KH2PO4, 0.28 mM MgSO4, 1 mM MgCl2, 2.7 mM NaHCO3, 1 mM Kynurenic acid and 0.6% D-glucose.
(§2) Transversal hippocampal slices (400 μm) were prepared using a vibrating blade microtome (VT1200S; Leica Microsystems (Schweiz) AG, Heerbrugg, Switzerland) in the same buffer. Hippocampal slices were individually placed on a membrane insert (Millicell Culture Plate Inserts, 0.4 μm) and cultivated at 35° C., 5% CO2, 95% humidity in a medium containing a 1:1 mixture of BME and MEM (both from Invitrogen) containing 25% heat-inactivated horse serum, 1× GlutaMAX, 1× Penicillin/Streptomycin, 0.6% glucose and 1 mM Kynurenic acid (Stoppini, Buchs and Muller (1991), J. Neurosci. Methods, 37(2), 173-82).
(§3) After 48 h in culture, synaptic NMDA receptors were activated by addition of thyme extract or its constituents for 15 min in 140 mM NaCl, 5 mM KCl, 1.3 mM CaCl2, 25 mM HEPES (pH 7.3), 33 mM D-glucose and 0.02 mM bicuculline methiodide. […] An additional positive control comprised the addition of 200 μM glycine to sister cultures. After the treatments, sections were washed and fixed for immunohistochemistry. Markers of enhanced synaptic activity, normally associated with long-term potentiation, representing an ex vivo model of learning and memory were quantitated (see Table 2, below).
(§4) Table 2. […]. The activation of any of these markers (or a combination thereof) is observed in classical LTP experiments.
(§5) Treatment of hippocampal cultures with thyme extracts as well as with both p-cymene and thymol induced biochemical markers typical for LTP (pCREB: activated form of the cAMP response element binding protein; pMAPK: activated form of the mitogen-activated protein kinase; GLUR1: cell surface presence of AMPA receptor 1).

GluR1 = experiment: Hippocampal slice cultures, synaptic marker GluR1 (cell surface AMPA receptor 1); assay type: cell-based, Wistar rats; details: 15 min treatment of slices after 48 h culture; compared to sister cultures treated with buffer
Protocol: as §1, §2, §3, §4, §5

NMDA receptor [2] = details: mouse hippocampal slice preparation; Bergeron et al 1998; cited from earlier work
NMDA receptor [3] = details: rat hippocampal slice preparation; Bergeron et al 1998; cited from earlier work
adult mice [4] = details: systemic administration, Kinney et al 2003; cited from earlier work
adult mice [5] = details: systemic administration, Kinney et al 2003; cited from earlier work; remark: listed apart in the source
pMAPK = experiment: Hippocampal slice cultures, synaptic marker pMAPK (immunohistochemistry); assay type: cell-based, Wistar rats; details: 15 min treatment of slices after 48 h culture; compared to sister cultures treated with buffer
Protocol: as §1, §2, §3, §4, §5

Compound	IC50 [1] [µM]	IC50 for tritiated glycine uptake [1]	pCREB relative activation (pCREB)	pMAPK relative activation (pMAPK)	GluR1 relative activation (symbol) (GluR1)	also measured
Cc1ccc(C(C)C)c(O)c1 [Thymol]	13.6		++++			GluR1 relative activation (GluR1): 250-767%
CN(CCC(Oc1ccc(-c2ccccc2)cc1)c1ccc(F)cc1)CC(=O)O (stereo not shown) [NFPS, N-[3-(4′-fluorophenyl)-3-(4′-phenylphenoxy)]propylsarcosine]						NMDA receptor responses in CA1 pyramidal cells (NMDA receptor [2]): enhanced; NMDA receptor responses in CA1 pyramidal cells (NMDA receptor [3]): enhanced; LTP in the dentate gyrus (adult mice [4]): increased; Prepulse inhibition of the acoustic startle response (adult mice [5]): enhanced
CNCC(=O)O [Sarcosine, reference compound]	0.0359					
C=CC(C)(O)CCC=C(C)C (stereo not shown) [Linalool]		inactive	±	±	±	

Continued, in another order:

IC50 [1] [µM]	IC50 for tritiated glycine uptake [1]	Compound	pCREB relative activation (pCREB)	pMAPK relative activation (pMAPK)	GluR1 relative activation (symbol) (GluR1)	also measured
	inactive	Caryophyllene	±	±		
	inactive	Cc1ccc(C(C)C)cc1 [P-Cymene]	++	++++	±	
